According to patent publication US8003096B2, “Means and methods for the recruitment and identification of stem cells” (Vlaams Interuniversitair Instituut voor Biotechnologie VZW, priority 2003, dated 2011):

Assays:
Assay type in all cases: in vivo, mouse
[1] = tested on: fibronectin, collagen IV; assay: Immunostaining of BM sections for ECM proteins
Experimental: Mice were killed via cervical dislocation, femurs were removed, fixed in 2% paraformaldehyde in PBS for 24 hours, and decalcified in EDTA solution. After dehydration and paraffin embedding, 10 μm transverse sections were prepared on Superfrost Plus slides. Immunohistochemistry was performed using antibodies against VWF (DAKO), MMP-9 (Oncogene), tPA, uPA, MMP-2, MMP-3, MMP-12 (Santa Cruz), laminin, fibronectin (Sigma), and collagen IV (kind gift from A. Noel). Analysis was performed on a Zeiss Axioplan2, a 3CCD video camera (DXC-93OP, Sony), and KS300 software.

[2] = tested on: sKitL; assay: sKitL levels in BM plasma (ELISA); settings: WT mice
Experimental: BM extracellular fluid (BM plasma) from mice was obtained as described previously (Petit et al. (2002), Nat. Immunol. 3:687-94). BM plasma from healthy volunteers was obtained by using the first 10 ml of collection via puncture in the iliac crest under local anesthesia, and immediate anti-coagulation with EDTA. Protein extraction on BM cells was performed as described (Heymans et al. (1999), Nat. Med. 5:1135-42). Murine sKitL and SDF1α protein levels were quantified using commercial available ELISA (R&D Systems, Abingdon, UK). Murine plasminogen, and murine and human suPAR were quantified by home-made ELISA (Heymans et al. (1999), Nat. Med. 5:1135-42; Sier et al. (2004), Thromb. Haemost. 91:403-11). Lyophilized pertussis toxin was obtained from List Laboratories. MMP-2, MMP-9, and MMP-12 activities were measured using gelatin-zymography, uPA and MMP-3 activities were measured using casein-zymography, as described previously (Heymans et al. (1999), Nat. Med. 5:1135-42). Samples from gene-deficient mice were used as negative controls. Plasmin activity of BM plasma or cells (pericellular activity) was measured using substrate colorimetry (S2403), as described previously (Heymans et al. (1999), Nat. Med. 5:1135-42). Fibrinolytic activity was measured using a modified fluorescent-based in vitro clot lysis assay (Heymans et al. (1999), Nat. Med. 5:1135-42). Western blotting was performed on non-reduced samples, which were neutralized with a cocktail of protease inhibitors (Complete Inhibitor, Roche). ECM components/fragments were detected with antibodies against mouse fibronectin and laminin (Sigma), and human D1D2D3 and D2D3 (Andolfo et al. (1999), Thromb. Haemost. 88:298-306), secondary HRP-labeled antibodies (DAKO), and ECL detection system (Amersham Pharmacia).

[3] = tested on: plasmin; assay: Plasmin activity in BM plasma, chromogenic assay; settings: WT mice
Experimental: To study the role of the plasminogen proteinase system with its plasminogen activators tPA and uPA, and active plasmin in stem/progenitor cell mobilization, mice lacking plasminogen (Plg^−/−), tPA (tPA^−/−), uPA (uPA^−/−) and both activators (tPA^−/−uPA^−/−) were used.^(17, 18) Age- and sex-matched mice were kept in IVC cages. Mobilization was induced either via a single sublethal injection i.v. of the myeloablative agent 5-fluorouracil (5-FU, 200-250 mg/kg), or via administration s.c. of recombinant human G-CSF (Filgrastim, Amgen, 200 μg/kg/d) for five consecutive days.^(12) Peripheral blood (PB) samples were obtained by retro-orbital bleeding under light anesthesia. Full blood counts were determined on the Abbott Cell Dyn 1300 hemocytometer. The number of mobilized hematopoietic progenitor cells (HPCs) in the circulation was determined via methylcellulose-based CFU-C assays (MethoCult, Stem Cell Technologies), per 10^5 peripheral blood mononuclear cells (PB MNCs).^(12) The number of mobilized hematopoietic stem cells (HSCs) in the circulation was quantified via splenic colony-forming assays (CFU-S), and evaluated for long-term engraftment via transplantation into lethally irradiated syngeneic wild-type recipients (9.5 Gy total body irradiation). […]

**Q.** Which “collagen-IV+ area as % of total area” value ([1]; 5-FU-treated WT mice) does the source give for `O=c1[nH]cc(F)c(=O)[nH]1` [5-FU, 5-fluorouracil] here?
**A.** Its value is 21±1%.

**Q.** And the “fibronectin+ area as % of total area” value ([1]; 5-FU-treated WT mice)?
**A.** Its value is 9±1%.

**Q.** And the “collagen-IV+ area as % of total area” value ([1]; 5-FU-treated uPA−/− mice)?
**A.** The value was 26±1%.

**Q.** And the “fibronectin+ area as % of total area” value ([1]; 5-FU-treated uPA−/− mice)?
**A.** Its value is 14±2%.

**Q.** What about the “elevation of sKitL levels in the BM plasma” value ([2]; seven days after treatment) of the same compound?
**A.** Its value is 14 fold.

**Q.** What about the “elevation of sKitL levels in the BM plasma” value ([2]; ten days after treatment) of the same compound?
**A.** The value was 2.5 fold.

**Q.** And the “plasmin activity in BM plasma” value ([3]; after single i.v. bolus, N=4)?
**A.** The value was 75±14 U.

**Q.** What about the “elevation of plasmin activity in BM plasma above baseline” value ([3]; single i.v. bolus) of the same compound?
**A.** The value was “five-fold”.
